In patent US20250115620A1, “BRIDGED TRICYCLIC CARBAMOYLPYRIDONE COMPOUNDS AND USES THEREOF” (Gilead Sciences, Inc., priority 2022, published 2025):
Like-named read-outs stand apart in the source and are kept apart here.

Experiments:
[1] = in vitro; details: human, uninfected MT-4 cells
[2] = test system: HIV-1 (IIIB); assay: microbe, parasite or virus in culture; format: cell-based; details: HIV-1 (IIIB) in MT-4 cells, 5 days incubation, Cell Titer Glo, read-out: MT4 EC50
[3] = test system: MT-4 cells; assay: Cytotoxicity assay in MT-4 cells; details: uninfected MT-4 cells
[4] = test system: pLAI reporter virus; assay: microbe, parasite or virus in culture; format: cell-based, HIV
[5] = test system: G140S/Q148R; assay: HIV double mutant assay in MT-4 cells; format: cell-based; details: G140S/Q148R vs wild type HXB2, MT-4 cells, 5 day incubation
Protocol: (§1) The HIV double mutant assay assesses the changes in efficacy of antiviral compounds against viral mutants compared to wild type. Each of the three mutant virus strains in this panel contain two amino acid substitutions ([…], E138K/Q148K and E92Q/N155H) of the parental HXB2. Test compounds and controls were serially diluted and spotted in replicates into 384 well black assay plates using acoustic transfer (Echo). Replicate sets of plates were made for each strain. MT-4 cells were grown in batch, centrifuged and resuspended in fresh CCM media (RPMI w/10% FBS, 1% PS) at 2×10^6 cells/ml. Cells were batch infected with each mutant strain at optimized volumes (currently HXB2 25 ul/ml; […], E138K/Q148K and E92Q/N155H at 40 ul/ml cells). The size of each infection mix was based on number of sample plates to be tested. Each infection mix was transferred into 5 ml closed tubes and nutated rapidly on a shaker at 37 deg. incubator for 1 hour. The infection mixes were then diluted 25× in fresh CCM media then added to assay plates at 40 ul per well using a Viaflo 384 pipettor. After 5 day incubation at 37 degrees in a CO2 incubator, assay plates were processed with Cell-titer glo reagent using a ViaFlo 384 with an addition/mixing program. Plates were read immediately on Envision reader. Assay signals were plotted and dose response curves generated to determine individual compound EC50s. The effect of each mutation was assessed by comparing EC50s of wild type and mutant strains.

[6] = test system: E138K/Q148K; assay: HIV double mutant assay in MT-4 cells; format: cell-based; details: E138K/Q148K vs wild type HXB2, MT-4 cells, 5 day incubation
Protocol: as §1

[7] = test system: E92Q/N155H; assay: HIV double mutant assay in MT-4 cells; format: cell-based; details: E92Q/N155H vs wild type HXB2, MT-4 cells, 5 day incubation
Protocol: as §1

[8] = Half life, PK in monkeys after intravenous infusion; format: in vivo; details: cynomolgus, monkey, single-dose intravenous infusion for 30 minutes, plasma, read-out: Cyno half-life (converted)
Protocol: Test compound PK was determined in monkeys (Labcorp, Madison, WI) following a single-dose intravenous infusion for 30 minutes. The dosing vehicle was a mixture of N-methylpyrrolidone, polyethylene glycol 300, and water for intravenous administration in monkeys. […] Nonclinical plasma samples were prepared by addition of 200 μl cold acetonitrile/internal standard solution to 96-well plates containing 50 μl aliquots of each plasma sample. After protein precipitation, each of the supernatants (50 μl) were transferred to clean 96-well plates and diluted with 450 μl of water. The sample injection volume was 2 μl. Samples were analyzed by a multiple reaction monitoring LC-MS/MS method. […] Thermo Fisher Scientific), and the ABSciex QTRAP5500 Mass Spectrometer LC-MS/MS system. […] The following plasma PK parameters were estimated in nonclinical species (as appropriate): observed peak plasma concentration (Cmax), time to reach Cmax (Tmax), last quantifiable plasma concentration (Clast), t1/2, time of Clast (Tlast), area under the plasma concentration-time curve (AUC) from time 0 [NT], AUC from time 0 to infinity (AUCinf), CL, mean residence time (MRT), and volume of distribution at steady state (Vss).

[9] = Human immunodeficiency virus 1, IIIB, MT4, 120 h
[10] = Human immunodeficiency virus 1, MT4, 72 h, read-out: RLUC CCM EC50
[11] = Human immunodeficiency virus 1, MT4, 72 h, read-out: RLUC 50% HS EC50

## CC1=NN(c2ccccc2)C2(CC[C@H](C)N3C[C@H]2n2cc(C(=O)NCc4c(F)cc(F)cc4F)c(=O)c(O)c2C3=O)C1 (single isomer, unassigned) [Example 90, (3′S,7′R)-12′-hydroxy-3′,5-dimethyl-1′,11′-dioxo-2-phenyl-N-(2,4,6-trifluorobenzyl)-1′,2,4,4′,5′,11′-hexahydro-3′H,7′H-spiro[pyrazole-3,6′-[2,7]methanopyrido[1,2-a][1,4]diazonine]-10′-carboxamide]
[1]
  CC50 at 5 days: 22.3 µM
[2]
  EC50: 3.2 nM
[2]; [9]
  EC50: 4.3 nM
[3]
  CC50: 20 µM
[4]; [10]
  EC50: 1.3 nM
[4]; read-out: RLUC CCM EC50
  EC50: 1.2 nM

## CC1=NO[C@@]2(CC[C@H](C)N3C[C@H]2n2cc(C(=O)NCc4ccc(F)cc4F)c(=O)c(O)c2C3=O)C1 [Example 1, (3'S,5S,7′R)—N-(2,4-difluorobenzyl)-12′-hydroxy-3,3′-dimethyl-1′,11′-dioxo-1′,4′,5′,11′-tetrahydro-3′H,4H,7′H-spiro[isoxazole-5,6′-[2,7]methanopyrido[1,2-a][1,4]diazonine]-10′-carboxamide]
[1]
  CC50 at 5 days: 20.4 µM
[2]; [9]
  EC50: 0.8 nM
[5]
  Double Mutant Shift (fold over wild type): 4×
[6]
  Double Mutant Shift (fold over wild type): 3×
[7]
  Double Mutant Shift (fold over wild type): 1×
[4]; [11]
  EC50: 92 nM
[4]; [10]
  EC50: 0.3 nM
[4]; read-out: RLUC CCM EC50
  EC50: 0.25 nM
[8]
  half-life: 1740 min

## COC1=NO[C@@]2(CC[C@H](C)N3C[C@H]2n2cc(C(=O)NCc4ccc(F)cc4F)c(=O)c(O)c2C3=O)C1 [Example 40, (3′S,5S,7′R)—N-(2,4-difluorobenzyl)-12′-hydroxy-3-methoxy-3′-methyl-1′,11′-dioxo-1′,4′,5′,11′-tetrahydro-3′H,4H,7′H-spiro[isoxazole-5,6′-[2,7]methanopyrido[1,2-a][1,4]diazonine]-10′-carboxamide]
[1]
  CC50 at 5 days: 34.1 µM
[2]; [9]
  EC50: 0.8 nM
[5]
  Double Mutant Shift (fold over wild type): 5×
[6]
  Double Mutant Shift (fold over wild type): 4×
[7]
  Double Mutant Shift (fold over wild type): 1×
[4]; [11]
  EC50: 22.5 nM
[4]; [10]
  EC50: 0.2 nM
[8]
  half-life: 720 min

## C[C@H]1CC[C@]2(CO2)[C@H]2CN1C(=O)c1c(O)c(=O)c(C(=O)NCc3c(F)cc(F)cc3F)cn12 [Example 165, (2R,3′S,7′R)-12′-hydroxy-3′-methyl-1′,11′-dioxo-N-(2,4,6-trifluorobenzyl)-1′,4′,5′,11′-tetrahydro-3′H,7′H-spiro[oxirane-2,6′-[2,7]methanopyrido[1,2-a][1,4]diazonine]-10′-carboxamide]
[1]
  CC50 at 5 days: 6.59 µM
[2]; [9]
  EC50: 1.4 nM
[4]; [11]
  EC50: 5.4 nM
[4]; [10]
  EC50: 0.3 nM

## C[C@H]1CC[C@@]2(CO2)[C@H]2CN1C(=O)c1c(O)c(=O)c(C(=O)NCc3c(F)cc(F)cc3F)cn12 [Example 166, (2S,3′S,7′R)-12′-hydroxy-3′-methyl-1′,11′-dioxo-N-(2,4,6-trifluorobenzyl)-1′,4′,5′,11′-tetrahydro-3′H,7′H-spiro[oxirane-2,6′-[2,7]methanopyrido[1,2-a][1,4]diazonine]-10′-carboxamide]
[1]
  CC50 at 5 days: 4.6 µM
[2]; [9]
  EC50: 0.9 nM
[4]; [11]
  EC50: 1.3 nM
[4]; [10]
  EC50: 0.2 nM

## COC[C@H]1CO[C@]2(CC[C@H](C)N3C[C@H]2n2cc(C(=O)NCc4c(F)cc(F)cc4F)c(=O)c(O)c2C3=O)O1 [Example 167, (2R,3′S,4S,7′R)-12′-hydroxy-4-(methoxymethyl)-3′-methyl-1′,11′-dioxo-N-(2,4,6-trifluorobenzyl)-1′,4′,5′,11′-tetrahydro-3′H,7′H-spiro[[1,3]dioxolane-2,6′-[2,7]methanopyrido[1,2-a][1,4]diazonine]-10′-carboxamide]
[1]
  CC50 at 5 days: 35.8 µM
[2]; [9]
  EC50: 1.7 nM
[4]; [11]
  EC50: 8.7 nM
[4]; [10]
  EC50: 0.6 nM

## O=C(NCc1c(F)cc(F)cc1F)c1cn2c(c(O)c1=O)C(=O)N1CCCC[C@H]2C1 [Reference Compound A]
[2]; [9]
  EC50: 1.1 nM
[5]
  Double Mutant Shift (fold over wild type): 10×
[6]
  Double Mutant Shift (fold over wild type): 13×
[7]
  Double Mutant Shift (fold over wild type): 2×
[4]; [11]
  EC50: 2 nM
[4]; [10]
  EC50: 0.35 nM
[8]
  half-life: 180 min

## O=C(NCc1ccc(F)cc1F)c1cn2c(c(O)c1=O)C(=O)N1CCCC[C@H]2C1 [Reference Compound B]
[2]; [9]
  EC50: 1.5 nM
[5]
  Double Mutant Shift (fold over wild type): 12×
[6]
  Double Mutant Shift (fold over wild type): 18×
[7]
  Double Mutant Shift (fold over wild type): 3×
[4]; [11]
  EC50: 1.1 nM
[4]; [10]
  EC50: 0.28 nM
[8]
  half-life: 300 min

## O=C(NCc1ccc(F)cc1F)c1cn2c(c(O)c1=O)C(=O)N1CCCC3(CC3)[C@H]2C1 [Reference Compound C, reference compound]
[2]; [9]
  EC50: 1.2 nM
[5]
  Double Mutant Shift (fold over wild type): 5×
[6]
  Double Mutant Shift (fold over wild type): 3×
[7]
  Double Mutant Shift (fold over wild type): 2×
[4]; [11]
  EC50: 2 nM
[4]; [10]
  EC50: 0.25 nM

## C[C@H]1CCC[C@H]2CN1C(=O)c1c(O)c(=O)c(C(=O)NCc3ccc(F)cc3F)cn12 [Reference Compound D]
[2]; [9]
  EC50: 1.3 nM
[5]
  Double Mutant Shift (fold over wild type): 5×
[6]
  Double Mutant Shift (fold over wild type): 6×
[7]
  Double Mutant Shift (fold over wild type): 1×
[4]; [11]
  EC50: 7.5 nM
[4]; [10]
  EC50: 0.22 nM
[8]
  half-life: 180 min

## (3′S,5S,7′R)—N-((2,4-difluorophenyl)methyl-d2)-12′-hydroxy-3,3′-dimethyl-1′,11′-dioxo-1′,4′,5′,11′-tetrahydro-3′H,4H,7′H-spiro[isoxazole-5,6′-[2,7]methanopyrido[1,2-a][1,4]diazonine]-10′-carboxamide-N′-^15N [Example 151]
[2]
  EC50: 1.8 nM
[3]
  CC50: 13.8 µM
[4]; CCM media (RPMI/10% FBS), MT-4 cells, 3 days, read-out: RLUC CCM EC50
  EC50: 0.3 nM
[4]; read-out: RLUC 50% HS EC50, 50% human serum media, MT-4 cells, 3 days
  EC50: 69.2 nM
